# Literature values in patent US9849144B2 (Healios Oncology Nutrition, LLC, priority 2013, dated 2017).
# Legend:
# [1] = in vivo
# CaCo-2 cells = details: glucose containing disaccharides
relative humidity up to which crystalline form is stable and remains free flowing,Compound,daily dose with no safety or toxicity concerns [1],increase of GLN uptake (CaCo-2 cells)
–,"NC(=O)CC[C@H](N)C(=O)O [Glutamine, L-glutamine]",up to 40 grams a day,–
up to 94 % relative humidity,"OC[C@H]1O[C@H](O[C@H]2O[C@H](CO)[C@@H](O)[C@H](O)[C@H]2O)[C@H](O)[C@@H](O)[C@@H]1O [trehalose, α-D-glucopyranosyl-1,1-α-D-glucopyranoside]",–,a thousand fold
